One series concerns the target T1, CB2R (Homo sapiens, UniProt P34972).
T1 construct: expressed in transfected cells; host or cells: HEK293 cells stably transfected with pIRES2-EGFP-CB2, pGL4.29 [luc2P/CRE/Hygro] and pRL-TK
Put plainly: double luciferase reporter screening system in HEK293-CB2 cells. Type of series: cell-based. The settings on record: 1 μM, 6-h treatment. The procedure: To generate the HEK293-CB2 cells, 5 × 10^5 HEK293 cells were cultured in a 60 mm culture dish for 12 h, washed with PBS, and then transfected with Lipofectamine 3000 reagent containing a test reporter plasmid, control reporter plasmid encoding Renilla luciferase, and effector plasmid. The ratio of the transfection plasmid pIRES2-EGFP-CB2, pGL4.29 [luc2P/CRE/Hygro], and pRL-TK was 2 μg, 10 μg, and 1μg, respectively. After a 24-htransfection, cells were selected and cultured in the medium containing G418 (800 μg·mL^−1) and hygromycin (400 μg·mL^−1) for two weeks. The surviving cells were picked and expanded as HEK293-CB2R cells.
Several aspects of the high-throughput screening system were optimized to ensure efficient and accurate application of the system for high-throughput data collection. To conduct high-throughput assays in 96-well plates, the number of cells seeded per well, incubation time, drug and AM630 concentrations, and the DMSO content were optimized. The dual luciferase assay was performed as described previously. […] Subsequently, the quantitative evaluation indexes of the high-throughput screening system, including the signal-to-background ratio, S/B = Msignal/Mbackground; signal window, SW = Msignal − Mbackground; signal-to-noise ratio, S/N = (Msignal − Mbackground)/SDbackground; signal background coefficient of variation, CV(%) = 100 × SDsignal/Msignal; and Z’ factor were determined to ensure its efficient and accurate application of the system in high-throughput data collection. Here, Z′ = 1 − 3(SDsignal + SDbackground)/|Msignal − Mbackground| [25], where M represents an average of the relative luminescence value and SD is the standard deviation of M.
The HEK293-CB2 cells from 10–40 passages were separately inoculated into 96-well plates at 5 × 10^3 cells per well. […] The results were expressed as relative luminescence values.
The HEK293-CB2 cells were inoculated on a 96-well culture plate with a density of 5 × 10^3 cells per well. […] The relative luminescence value was used to express the expression of CB2R.
Furthermore, the activation of the compounds on CB2R was also verified by using the CB2R inverse agonist AM630. The HEK293-CB2 cells were inoculated on a 6-well culture plate at a density of 5 × 10^4 cells per well. […] The expression of the CB2R gene is expressed by the relative luminescence value.

A further series deals with RAW264.7 macrophages. Put plainly: viability of RAW264.7 macrophages (CCK8). It is filed as cell-based, murine. The following applies: 1 μM, three days. The protocol:
The murine macrophage RAW264.7 cell line, which has the potential to differentiate into osteoclasts under the induction of RANKL, was obtained from the Cell Bank of the Chinese Academy of Sciences (Shanghai, China). The cells were cultured in DMEM containing 10% (v/v), 1% (v/v) penicillin, and streptomycin (Beyotime, Shanghai, China) at 37 °C in humidified air with 5% CO2, and then subcultured every two days. For induction of the osteoclasts, RAW264.7 cells were incubated with 25 ng·mL^−1 RANKL for 72 h. Osteoclasts were identified by TRAP staining.
RAW264.7 cells were inoculated in a 96-well plate at a density of 1 × 10^4 cells per well. After a 24-h culture at 37 °C, cells were treated with the test compounds for 48 h and cell viability was determined with the CCK-8 kit according to the instructions. RAW264.7 cells were inoculated on a 96-well culture plate at a density of 1 × 10^4 cells per well, induced with […] of nuclear factor-κB receptor activator ligand (RANKL) to differentiate into osteoclasts for 72 h. […] The reaction was terminated with 1 mol·L^−1 of NaOH solution (100 μL per well) and the absorbance was determined at a wavelength of 405 nm. […]

Series [1] has as its system osteoclasts derived from RAW264.7 cells. Put plainly: F-actin ring formation assay in osteoclasts. Type of series: cell-based, murine. The procedure:
RAW264.7 cells were incubated in a confocal culture dish (diameter, 35 mm) at adensity of 5 × 10^4 cells·dish^−1 for 24 h, treated with 25 ng·mL^−1 RANKL and the screened compounds for five days, fixed with 4% paraformaldehyde for 30 min, stained with 5 μg·mL^−1 rhodamine-conjugated phalloidin (Sigma-Aldrich Chemical Co.) at 37 °C for 40 min, washed with PBS again, and stained again with 4′,6-diamidino-2-phenylindole (DAPI, Beyotime, Shanghai, China) for 10 min at room temperature (Li et al., 2018). The F-actin ring of the osteoclasts was observed under a fluorescent microscope (Axiovert 200, Carl Zeiss, Oberkochen, Germany). The fluorescence images of the cells were processed using Zeiss ZEN software.

The record followed here is PMC8838898, “Identification of Novel Cannabinoid CB2 Receptor Agonists from Botanical Compounds and Preliminary Evaluation of Their Anti-Osteoporotic Effects” (Molecules, 2022).

T1 sequence (P34972 whole entry): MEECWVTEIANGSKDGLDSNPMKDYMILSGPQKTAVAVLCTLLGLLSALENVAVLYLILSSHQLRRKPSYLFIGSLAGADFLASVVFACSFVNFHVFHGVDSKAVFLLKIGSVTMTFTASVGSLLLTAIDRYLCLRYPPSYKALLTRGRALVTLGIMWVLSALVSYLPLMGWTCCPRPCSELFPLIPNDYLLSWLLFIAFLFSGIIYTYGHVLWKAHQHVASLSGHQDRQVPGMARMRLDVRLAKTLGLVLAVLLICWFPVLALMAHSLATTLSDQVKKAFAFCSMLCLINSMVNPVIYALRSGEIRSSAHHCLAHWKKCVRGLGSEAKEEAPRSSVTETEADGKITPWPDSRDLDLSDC

Turning to `CCCCCCC(C)(C)c1cc(OC)c([C@@H]2C=C(CO)[C@@H]3C[C@H]2C3(C)C)c(OC)c1` [HU308], the “luciferase activity of HEK293-CB2 cells of passages 10, 15, 25, 35 and 40” value at CB2R was “significantly increased”. Also, the “viability of RAW264.7 macrophages” value in the series on RAW264.7 macrophages is “had no inhibitory effects on the viability”. In series [1] (1 μM AM630), the “reversal of the F-actin ring effect by AM630” value is “could also be reversed by AM630”. The “formation of the F-actin ring in osteoclasts” value in series [1] (five-day treatment, phalloidin staining) is “decreased the formation of the F-actin ring”.
